Our source for the inhibition in vivo values is ChEMBL document CHEMBL3045394, “Synthesis and antiinflammatory activity of certain benzothieno[3,2-d][1,2,4]triazolo[4,3-b] pyridazine derivatives” (2012).

Each structure is given as a SMILES string.

The test has as its system Rattus norvegicus. Briefly: Anti-inflammatory activity inRattus norvegicus albino (rat) assessed as inhibition of carageenaan-induced paw edema at 10 mg/kg, po administered 1 hr prior to carrageenan-challenge measured after 4 hr relative to control.

The inhibition in vivo is how much of the control response was suppressed. On to `Oc1nn2cnnc2c2c1sc1c(Br)cccc12`, for which the inhibition in vivo at 10 mg/kg was determined as 9.7%.
For `NNc1nn2cnnc2c2c1sc1c(Br)cccc12` the value was 52.8%; for `COc1ccccc1-c1nnc2c3c(sc4c(Br)cccc43)c(NN)nn12`, 78.7%.
As for `COc1ccccc1-c1nnc2c3c(sc4c(Br)cccc43)c(N3CCCCC3)nn12`, the inhibition in vivo at 10 mg/kg worked out at 8.4%.
Turning to `COc1ccc2c(c1)c(CC(=O)O)c(C)n2C(=O)c1ccc(Cl)cc1` [INDOMETHACIN], the inhibition in vivo at 10 mg/kg was 50.5%.
